Experimental data reported in PubChem BioAssay AID2060603 (Molecular Pharmacology Branch, DTP, NCI, 2025).
Values joined by “and” are separate entries in the source; they are usually repeats but may differ in a detail not shown here. Equal values may be shown once.

System: 422866-222-R5-J1-PDC spheroid viability
Test: Anticancer human tumor 422866-222-R5-J1-PDC patient-derived pancreatic adenocarcinoma cell line growth inhibition [CLK]
Settings: spheroids with HUVEC and MSC; for viability, T/C: stronger effect = lower value
Summary of the method: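 Patient-derived tumor cells grown as complex spheroids with HUVEC endothelial cells and mesenchymal stem cells, treated with drug combinations. Concentrations descend in half-log steps from near clinical Cmax, or from 10 microM if Cmax unknown.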

[1] = curve of first compound, second compound 0.0316 µM
[2] = curve of first compound, second compound 0.1 µM
[3] = curve of first compound, second compound 0.316 µM
[4] = curve of first compound, second compound 1 µM
[5] = curve of first compound, second compound 3.16 µM
[6] = curve of first compound, second compound 10 µM
[7] = second compound 0.0316 µM, first compound 0.0316 µM
[8] = second compound 0.0316 µM, first compound 0.1 µM
[9] = second compound 0.0316 µM, first compound 0.316 µM
[10] = second compound 0.0316 µM, first compound 1 µM
[11] = second compound 0.0316 µM, first compound 3.16 µM
[12] = second compound 0.0316 µM, first compound 10 µM
[13] = second compound 0.1 µM, first compound 0.0316 µM
[14] = second compound 0.1 µM, first compound 0.1 µM
[15] = second compound 0.1 µM, first compound 0.316 µM
[16] = second compound 0.1 µM, first compound 1 µM
[17] = second compound 0.1 µM, first compound 3.16 µM
[18] = second compound 0.1 µM, first compound 10 µM
[19] = second compound 0.316 µM, first compound 0.0316 µM
[20] = second compound 0.316 µM, first compound 0.1 µM
[21] = second compound 0.316 µM, first compound 0.316 µM
[22] = second compound 0.316 µM, first compound 1 µM
[23] = second compound 0.316 µM, first compound 3.16 µM
[24] = second compound 0.316 µM, first compound 10 µM
[25] = second compound 1 µM, first compound 0.0316 µM
[26] = second compound 1 µM, first compound 0.1 µM
[27] = second compound 1 µM, first compound 0.316 µM
[28] = second compound 1 µM, first compound 1 µM
[29] = second compound 1 µM, first compound 3.16 µM
[30] = second compound 1 µM, first compound 10 µM
[31] = second compound 3.16 µM, first compound 0.0316 µM
[32] = second compound 3.16 µM, first compound 0.1 µM
[33] = second compound 3.16 µM, first compound 0.316 µM
[34] = second compound 3.16 µM, first compound 1 µM
[35] = second compound 3.16 µM, first compound 3.16 µM
[36] = second compound 3.16 µM, first compound 10 µM
[37] = second compound 10 µM, first compound 0.0316 µM
[38] = second compound 10 µM, first compound 0.1 µM
[39] = second compound 10 µM, first compound 0.316 µM
[40] = second compound 10 µM, first compound 1 µM
[41] = second compound 10 µM, first compound 3.16 µM
[42] = second compound 10 µM, first compound 10 µM
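Note: spheroids exposed to agents for seven days before readout.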

SMILES: Nc1ccccc1NC(=O)c1ccc(CNC(=O)OCc2cccnc2)cc1
- viability, T/C (compound 0.0316 µM): 102% and 93.7%
- viability, T/C (compound 0.1 µM): 129% and 108%
- viability, T/C (compound 0.316 µM): 144% and 139%
- viability, T/C (compound 1 µM): 106% and 104%
- viability, T/C (compound 3.16 µM): 78.5% and 92.5%
- viability, T/C (compound 10 µM): 86.9% and 81.8%
- IC50 (curve of compound): > 10 µM

SMILES: Nc1ccccc1NC(=O)c1ccc(CNC(=O)OCc2cccnc2)cc1 + CN1CCN(c2cc(C(=O)Nc3cc4cc(-c5cnn(C)c5)ccc4cn3)ccn2)CC1
- IC50 [1]: > 10 µM
- IC50 [2]: > 10 µM
- IC50 [3]: 2.38 µM
- IC50 [4]: < 0.0316 µM
- IC50 [5]: < 0.0316 µM
- IC50 [6]: < 0.0316 µM
- viability, T/C [7]: 121%
- viability, T/C [8]: 137%
- viability, T/C [9]: 121%
- viability, T/C [10]: 114%
- viability, T/C [11]: 75.8%
- viability, T/C [12]: 60.4%
- viability, T/C [13]: 135%
- viability, T/C [14]: 118%
- viability, T/C [15]: 121%
- viability, T/C [16]: 96.6%
- viability, T/C [17]: 74.5%
- viability, T/C [18]: 62.6%
- viability, T/C [19]: 106%
- viability, T/C [20]: 95.5%
- viability, T/C [21]: 91.1%
- viability, T/C [22]: 62.5%
- viability, T/C [23]: 46.9%
- viability, T/C [24]: 19.5%
- viability, T/C [25]: 28.4%
- viability, T/C [26]: 28.6%
- viability, T/C [27]: 25.6%
- viability, T/C [28]: 16.1%
- viability, T/C [29]: 4.32%
- viability, T/C [30]: 5.2%
- viability, T/C [31]: 8.75%
- viability, T/C [32]: 8.34%
- viability, T/C [33]: 4.74%
- viability, T/C [34]: 4.04%
- viability, T/C [35]: 3.26%
- viability, T/C [36]: 8.29%
- viability, T/C [37]: 2.62%
- viability, T/C [38]: 1.81%
- viability, T/C [39]: 1.37%
- viability, T/C [40]: 1.01%
- viability, T/C [41]: 2.34%
- viability, T/C [42]: 4.45%

SMILES: CC(=O)O[C@H]1C(=O)[C@@]2(C)[C@H]([C@H](OC(=O)c3ccccc3)[C@]3(O)C[C@H](OC(=O)[C@H](O)[C@@H](NC(=O)c4ccccc4)c4ccccc4)C(C)=C1C3(C)C)[C@]1(OC(C)=O)CO[C@@H]1C[C@@H]2O + CNC(=O)c1ccc(Nc2nc(OC3CCCC3)c3c(-c4ccc5nc(C)oc5c4)c[nH]c3n2)c(OC)c1
- IC50 [1]: > 10 µM
- IC50 [2]: > 10 µM
- IC50 [3]: > 10 µM
- IC50 [4]: 0.0316 µM
- IC50 [5]: > 10 µM
- IC50 [6]: > 10 µM
- viability, T/C [7]: 68.8%
- viability, T/C [8]: 61.1%
- viability, T/C [9]: 65.3%
- viability, T/C [10]: 83.3%
- viability, T/C [11]: 102%
- viability, T/C [12]: 100%
- viability, T/C [13]: 61%
- viability, T/C [14]: 67.9%
- viability, T/C [15]: 63%
- viability, T/C [16]: 74.8%
- viability, T/C [17]: 78.5%
- viability, T/C [18]: 98.1%
- viability, T/C [19]: 59.4%
- viability, T/C [20]: 68%
- viability, T/C [21]: 62.2%
- viability, T/C [22]: 61.4%
- viability, T/C [23]: 65.5%
- viability, T/C [24]: 78.7%
- viability, T/C [25]: 56.5%
- viability, T/C [26]: 48.4%
- viability, T/C [27]: 52.8%
- viability, T/C [28]: 48.5%
- viability, T/C [29]: 66.5%
- viability, T/C [30]: 73%
- viability, T/C [31]: 56.5%
- viability, T/C [32]: 60.8%
- viability, T/C [33]: 52.3%
- viability, T/C [34]: 57.9%
- viability, T/C [35]: 70.5%
- viability, T/C [36]: 79%
- viability, T/C [37]: 48.9%
- viability, T/C [38]: 60.1%
- viability, T/C [39]: 61.4%
- viability, T/C [40]: 53.9%
- viability, T/C [41]: 65.4%
- viability, T/C [42]: 70.5%
